Experimental data from US20230146455A1, “TREATMENT OF INFLAMMATORY DISEASES WITH PEPTIDES AND PHARMACEUTICAL COMPOSITIONS” (Yuyu Pharma, Inc., priority 2020, published 2023).
Values joined by “and” are separate entries in the source; they are usually repeats but may differ in a detail not shown here. Identical values can stand only once. Where a SMILES comes first, the peptide text is derived from it. [ ]: non-standard residue; d: D form. Hyp = O=C(O)[C@@H]1C[C@@H](O)CN1

Tests used:
[1] = tested on: Leptin; assay: Example 8 main study Luminex, LPS hPBMCs: Leptin; assay type: cell-based, human; conditions: PBMC + LPS(5 ug/ml)
Description: (§1) Human PBMCs were pretreated with YY-101, YDE-011, YDE-043 or reference compound; Xiidra® at various concentration (ranging from […] to 500 nM) for 2 h before stimulation. An equal volume of 0.5% DMSO was used as a vehicle control. Then, the cells were treated with LPS at 5 ug/ml, which was selected based on the pilot study. The supernatants from treated cells were harvested at 24 h and placed in a 96 well for Luminex cytokine & chemokine profiling using a Luminex 200 multiplex assay (Luminex; R&D system, USA).
(§2) The main study arm with triplicate wells per group in a 24-well plate: • 1. Blank • 2. PBMC: 0.5% DMSO • 3. PBMC+LPS (5 ug/ml) • 4. PBMC+YY-101 500 nM • 5. PBMC+YY-101 50 nM • 6. PBMC+YY-101 5 nM • 7. PBMC+YY-101 0.5 nM • 8. PBMC+LPS (5 ug/ml)+Xiidra® 500 nM • 9. PBMC+LPS (5 ug/ml)+Xiidra® 50 nM • 10. PBMC+LPS (5 ug/ml)+Xiidra® 5 nM • 11. PBMC+LPS (5 ug/ml)+Xiidra® 0.5 nM • 12. PBMC+LPS (5 ug/ml)+Xiidra® 0.05 nM • 13. PBMC+LPS (5 ug/ml)+Xiidra® 0.005 nM • 14. PBMC+LPS (5 ug/ml)+YY-101 500 nM • 15. PBMC+LPS (5 ug/ml)+YY-101 50 nM • 16. PBMC+LPS (5 ug/ml)+YY-101 5 nM • 17. PBMC+LPS (5 ug/ml)+YY-101 0.5 nM • 18. PBMC+LPS (5 ug/ml)+YY-101 0.05 nM • 19. PBMC+LPS (5 ug/ml)+YY-101 0.005 nM • 20. PBMC+LPS (5 ug/ml)+YDE-011 500 nM • 21. PBMC+LPS (5 ug/ml)+YDE-011 50 nM • 22. PBMC+LPS (5 ug/ml)+YDE-011 5 nM • 23. PBMC+LPS (5 ug/ml)+YDE-011 0.5 nM • 24. PBMC+LPS (5 ug/ml)+YDE-011 0.05 nM • 25. PBMC+LPS (5 ug/ml)+YDE-011 0.005 nM • 26. PBMC+LPS (5 ug/ml)+YDE-043 500 nM • 27. PBMC+LPS (5 ug/ml)+YDE-043 50 nM • 28. PBMC+LPS (5 ug/ml)+YDE-043 5 nM • 29. PBMC+LPS (5 ug/ml)+YDE-043 0.5 nM • 30. PBMC+LPS (5 ug/ml)+YDE-043 0.05 nM • 31. PBMC+LPS (5 ug/ml)+YDE-043 0.005 nM
(§3) Multiplex assay was used to measure 30 cytokines and chemokines. The 1:200 diluted cell supernatant and serial dilution of the standard were dispensed into a 96 well plate at 50 ul/well. Then, the pre-mixed cocktail of antibody-coated magnetic beads was dispensed at 50 ul/well and incubated at room temperature for 2 h in a horizontal orbital microplate shaker at 800±500 rpm. The beads were washed using a magnetic device to prevent loss. The biotin-antibody was dispensed in 50 ul of each well and incubated at room temperature for 1 h in a shaker at 800±500 rpm. After washing, streptavidin-PE was added at 50 ul/well and incubated at room temperature for 30 min in a shaker under the same conditions. Finally, after washing, wash buffer (100 ul/well) was added to the plate and incubated in a shaker for 2 min. The Luminex™ 200 setting were set according to the manufacturer's protocol. The data was calculated with a standard five-parameter logistic nonlinear regression analysis of the data (xPonent software 4.2, USA). Results were presented as concentration (ng/ml or pg/ml).

[2] = tested on: CCL4/MIP-1 beta; assay: Example 8 main study Luminex, LPS hPBMCs: CCL4/MIP-1 beta; assay type: cell-based, human; conditions: for LPS-induced CCL-4 (in words): at as low as 5 μM, LPS 5 ug/mL 24 hrs
Description: as §1, §2, §3

[3] = PBMC + LPS(5 ug/ml) + test article 0.005 nM, Mean
[4] = PBMC + LPS(5 ug/ml) + test article 0.005 nM, single replicates
[5] = PBMC + LPS(5 ug/ml) + test article 0.05 nM, Mean
[6] = PBMC + LPS(5 ug/ml) + test article 0.05 nM, single replicates
[7] = PBMC + LPS(5 ug/ml) + test article 0.5 nM, Mean
[8] = PBMC + LPS(5 ug/ml) + test article 0.5 nM, single replicates
[9] = PBMC + LPS(5 ug/ml) + test article 5 nM, Mean
[10] = PBMC + LPS(5 ug/ml) + test article 5 nM, single replicates
[11] = PBMC + LPS(5 ug/ml) + test article 50 nM, Mean
[12] = PBMC + LPS(5 ug/ml) + test article 50 nM, single replicates
[13] = PBMC + LPS(5 ug/ml) + test article 500 nM, Mean
[14] = PBMC + LPS(5 ug/ml) + test article 500 nM, single replicates

Row | Structure (SMILES) | Leptin Concentration (pg/ml), Mean ([1]; test article 0.005 nM) [pg/mL] | Leptin Concentration (pg/ml), single replicates ([1]; test article 0.005 nM) | Leptin Concentration (pg/ml), Mean ([1]; test article 0.05 nM) [pg/mL] | Leptin Concentration (pg/ml), single replicates ([1]; test article 0.05 nM) | Leptin Concentration (pg/ml), Mean ([1]; test article 0.5 nM) [pg/mL] | Leptin Concentration (pg/ml), single replicates ([1]; test article 0.5 nM) | Leptin Concentration (pg/ml), Mean ([1]; test article 5 nM) [pg/mL] | Leptin Concentration (pg/ml), single replicates ([1]; test article 5 nM) | Leptin Concentration (pg/ml), Mean ([1]; test article 50 nM) [pg/mL] | Leptin Concentration (pg/ml), single replicates ([1]; test article 50 nM) | Leptin Concentration (pg/ml), Mean ([1]; test article 500 nM) [pg/mL] | Leptin Concentration (pg/ml), single replicates ([1]; test article 500 nM) | CCL4/MIP-1 beta Concentration [2, 3] [pg/mL] | CCL4/MIP-1 beta MFI [2, 3] | CCL4/MIP-1 beta Concentration [2, 4] | CCL4/MIP-1 beta MFI [2, 4] | CCL4/MIP-1 beta Concentration [2, 5] [pg/mL] | CCL4/MIP-1 beta MFI [2, 5] | CCL4/MIP-1 beta Concentration [2, 6] [pg/mL] | CCL4/MIP-1 beta MFI [2, 6] | further results
1 | CC(C)C[C@H](NC(=O)CNC(=O)[C@H](CC(C)C)NC(=O)[C@H](CCC(N)=O)NC(=O)CNC(=O)[C@@H]1C[C@@H](O)CN1)C(=O)N[C@@H](C)C(=O)NCC(=O)N1CCC[C@H]1C(=O)N[C@@H](CCCCN)C(=O)O [YDE-011] (H-[Hyp]GQLGLAGPK-OH) | 14975.6 | 17222.7 pg/ml (2×) and 10481.4 pg/ml | 14835.2 | 19789.4 pg/mL and 10481.4 pg/mL and 14234.9 pg/mL | 9683.0 | 10481.4 pg/mL and 4332.6 pg/mL and 14234.9 pg/mL | 10777.7 | <98.95 pg/mL and 4332.6 pg/mL and 17222.7 pg/mL | 12358.1 | 10481.4 pg/mL and 14234.9 pg/mL and <98.95 pg/mL | 13896.3 | 19789.4 pg/mL and <98.95 pg/mL and 8003.2 pg/mL | 20786.2 | 12.3 | 19701.2 pg/ml (2×) and 22956.0 pg/ml | 12.0 (2×) and 13.0 | 22956.0 | 13.0 | 22956.0 | 13.0 | CCL4/MIP-1 beta Concentration [2, 7]: 22956.0 pg/mL; CCL4/MIP-1 beta MFI [2, 7]: 13.0; CCL4/MIP-1 beta Concentration [2, 8]: 22956.0 pg/mL; CCL4/MIP-1 beta MFI [2, 8]: 13.0; CCL4/MIP-1 beta Concentration [2, 9]: 16738.7 pg/mL; CCL4/MIP-1 beta MFI [2, 9]: 11.3; CCL4/MIP-1 beta Concentration [2, 10]: 15257.5 pg/ml (2×) and 19701.2 pg/ml; CCL4/MIP-1 beta MFI [2, 10]: 11.0 (2×) and 12.0; CCL4/MIP-1 beta Concentration [2, 11]: 23847.2 pg/mL; CCL4/MIP-1 beta MFI [2, 11]: 13.3; CCL4/MIP-1 beta Concentration [2, 12]: 25629.7 pg/ml and 22956.0 pg/ml (2×); CCL4/MIP-1 beta MFI [2, 12]: 14.0 and 13.0 (2×); CCL4/MIP-1 beta Concentration [2, 13]: 13759.1 pg/mL; CCL4/MIP-1 beta MFI [2, 13]: 11.3; CCL4/MIP-1 beta Concentration [2, 14]: 19701.2 pg/ml (2×) and 1874.9 pg/ml; CCL4/MIP-1 beta MFI [2, 14]: 12.0 (2×) and 10.0; LPS-induced CCL-4 (in words) [2]: significantly reduced
2 | CC(C)C[C@H](NC(=O)[C@H](CCC(N)=O)NC(=O)CNC(=O)[C@@H]1C[C@@H](O)CN1)C(=O)NCC(=O)O [YDE-043] (H-[Hyp]GQLG-OH; N-terminus and C-terminus assumed) | 19724.6 | 18547.4 pg/ml (2×) and 22079.2 pg/ml | 10481.4 | 10481.4 pg/ml and <98.95 pg/ml (2×) | 15646.1 | 12493.0 pg/ml and 17222.7 pg/ml (2×) | 15505.7 | 19789.4 pg/mL and 12493.0 pg/mL and 14234.9 pg/mL | 18458.0 | 15795.3 pg/ml and 19789.4 pg/ml (2×) | 10678.9 | 17222.7 pg/mL and 4332.6 pg/mL and 10481.4 pg/mL | 24223.5 | 13.7 | 22956.0 pg/mL and 30013.2 pg/mL and 19701.2 pg/mL | 13.0 and 16.0 and 12.0 | 19701.2 | 12.0 | 19701.2 | 12.0 | CCL4/MIP-1 beta Concentration [2, 7]: 21871.1 pg/mL; CCL4/MIP-1 beta MFI [2, 7]: 12.7; CCL4/MIP-1 beta Concentration [2, 8]: 22956.0 pg/ml (2×) and 19701.2 pg/ml; CCL4/MIP-1 beta MFI [2, 8]: 13.0 (2×) and 12.0; CCL4/MIP-1 beta Concentration [2, 9]: 20786.2 pg/mL; CCL4/MIP-1 beta MFI [2, 9]: 12.3; CCL4/MIP-1 beta Concentration [2, 10]: 19701.2 pg/ml (2×) and 22956.0 pg/ml; CCL4/MIP-1 beta MFI [2, 10]: 12.0 (2×) and 13.0; CCL4/MIP-1 beta Concentration [2, 11]: 21205.1 pg/mL; CCL4/MIP-1 beta MFI [2, 11]: 12.5; CCL4/MIP-1 beta Concentration [2, 12]: 22956.0 pg/ml (2×) and 17703.4 pg/ml; CCL4/MIP-1 beta MFI [2, 12]: 13.0 (2×) and 11.5; CCL4/MIP-1 beta Concentration [2, 13]: 22762.3 pg/mL; CCL4/MIP-1 beta MFI [2, 13]: 13.0; CCL4/MIP-1 beta Concentration [2, 14]: 25629.7 pg/mL and 22956.0 pg/mL and 19701.2 pg/mL; CCL4/MIP-1 beta MFI [2, 14]: 14.0 and 13.0 and 12.0; LPS-induced CCL-4 (in words) [2]: significantly reduced
